Here are results for one molecule from PMC6240685, “Strong Inhibitory Effect, Low Cytotoxicity and High Plasma Stability of Steroidal Inhibitors of N-Methyl-D-Aspartate Receptors With C-3 Amide Structural Motif” (Frontiers in Pharmacology, 2018).

The target in this assay is T1, GluN1/GluN2A receptors (Rattus norvegicus, UniProt P35439+Q00959).
T1 construct: expressed in transfected cells; host or cells: HEK293
Description: Patch-clamp inhibition of GluN1/GluN2A receptors in transfected HEK293 cells. Type of assay: cell-based. The conditions noted are these: 1 mM glutamate and 10 μM glycine. Here is the method:
FIGURE 7 Concentration–response properties of compound 6 on GluN1/GluN2A-D receptors. (A) Examples of traces obtained from HEK293 cells transfected with cDNAs encoding GluN1/GluN2A, GluN1/GluN2B, GluN1/GluN2C, and GluN1/GluN2D receptors. Agonists (1 mM glutamate and 10 μM glycine) were applied alone and simultaneously with compound 6 (10 μM) to evaluate the inhibitory effect of compound 6 on NMDAR mediated currents (duration of glutamate and steroid application is indicated by filled and open bars, respectively). (B) Concentration–response curves for the compound 6 effect at GluN1/GluN2A-D receptors. Data points are averaged values of normalized responses from at least four HEK293 cells. Error bars represent SD.
Electrophysiological experiments were performed on HEK293 cells transfected with plasmids encoding rat GluN1-1a/GluN2A-D and GFP genes as described previously, ([Petrovic et al., 2005]; [Cais et al., 2008]; [Korinek et al., 2010]) or on primary hippocampal neurons prepared from P0–P1 rats, plated on collagen/poly-D-lysine-coated glass coverslips at a density of ∼50,000 cells/cm^2, and grown in Neurobasal A medium with B27 Supplement (Gibco). Agonist-induced responses were voltage-clamped at a holding potential of −60 mV. […] Agonist-induced responses were low-pass filtered at 2 kHz, digitally sampled at 5 kHz, and analyzed with pClamp software version 10.5 (Molecular Devices). […]

T1 sequence (Q00959 23-1464, other chains not shown): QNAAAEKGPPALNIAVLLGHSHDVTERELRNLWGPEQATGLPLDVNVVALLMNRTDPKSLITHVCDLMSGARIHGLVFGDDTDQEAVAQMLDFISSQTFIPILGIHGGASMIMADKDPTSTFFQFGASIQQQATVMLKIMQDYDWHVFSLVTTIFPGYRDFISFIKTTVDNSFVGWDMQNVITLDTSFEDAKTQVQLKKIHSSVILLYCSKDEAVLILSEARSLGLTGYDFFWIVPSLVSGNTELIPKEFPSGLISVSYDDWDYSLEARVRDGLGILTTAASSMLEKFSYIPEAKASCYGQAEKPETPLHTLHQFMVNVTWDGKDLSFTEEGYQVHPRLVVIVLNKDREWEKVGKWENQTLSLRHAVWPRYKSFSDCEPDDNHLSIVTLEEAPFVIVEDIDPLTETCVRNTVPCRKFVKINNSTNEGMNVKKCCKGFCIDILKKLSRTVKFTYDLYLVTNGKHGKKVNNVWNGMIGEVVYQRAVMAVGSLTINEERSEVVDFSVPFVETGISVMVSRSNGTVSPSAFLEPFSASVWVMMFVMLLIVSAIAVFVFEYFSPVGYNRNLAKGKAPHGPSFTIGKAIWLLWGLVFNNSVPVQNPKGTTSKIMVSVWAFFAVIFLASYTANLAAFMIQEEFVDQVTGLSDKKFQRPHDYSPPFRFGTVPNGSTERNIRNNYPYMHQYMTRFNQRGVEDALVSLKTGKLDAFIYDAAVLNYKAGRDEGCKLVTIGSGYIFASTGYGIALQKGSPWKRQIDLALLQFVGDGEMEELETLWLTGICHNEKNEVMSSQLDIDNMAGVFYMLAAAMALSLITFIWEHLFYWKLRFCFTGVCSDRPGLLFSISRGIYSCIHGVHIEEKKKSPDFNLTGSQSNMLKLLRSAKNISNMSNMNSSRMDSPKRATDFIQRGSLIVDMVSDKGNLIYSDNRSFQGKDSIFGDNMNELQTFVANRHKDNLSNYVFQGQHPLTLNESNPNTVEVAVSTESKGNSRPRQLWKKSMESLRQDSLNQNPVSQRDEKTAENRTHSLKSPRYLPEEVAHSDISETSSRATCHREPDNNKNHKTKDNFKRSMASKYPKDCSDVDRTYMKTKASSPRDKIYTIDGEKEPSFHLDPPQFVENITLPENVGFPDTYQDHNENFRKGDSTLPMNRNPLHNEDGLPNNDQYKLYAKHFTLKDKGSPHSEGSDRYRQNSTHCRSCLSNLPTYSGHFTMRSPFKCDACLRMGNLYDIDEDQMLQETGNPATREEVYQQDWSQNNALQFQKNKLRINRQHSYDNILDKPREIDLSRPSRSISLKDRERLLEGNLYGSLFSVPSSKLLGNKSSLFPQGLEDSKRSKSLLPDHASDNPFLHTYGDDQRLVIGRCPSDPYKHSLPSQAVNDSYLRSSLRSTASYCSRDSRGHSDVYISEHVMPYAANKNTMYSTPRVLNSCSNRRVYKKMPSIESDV

Turning to `C[C@@]12CCC[C@H]1[C@@H]1CC[C@@H]3C[C@H](NC(=O)[C@@H](N)CC(=O)O)CC[C@]3(C)[C@H]1CC2` [Compound 6, (S)-3-amino-4-(((3R,5R,8S,9S,10S,13S,14S)-10,13-dimethylhexadecahydro-1H-cyclopenta[a]phenanthren-3-yl)amino)-4-oxobutanoic acid], the “h ± SD (apparent Hill coefficient)” value is 1.3 ± 0.1. Moreover, the IC50 (concentration-response) was 6.5 ± 0.7 µM.

Usually IC50 stands for the concentration at which inhibition is half-maximal. Lower therefore signals greater potency in that assay.
